What all share (parameters): agar dilution MIC, growth inhibition of clinical Burkholderia isolates
On the technique in general: Agar dilution tests growth on a series of plates holding different concentrations.

The test system of one experiment is T1, B. cenocepacia AU22509.
T1 construct: AU22509
Kind of experiment: microbe, parasite or virus in culture. To be noted: Burkholderia cenocepacia, AU22509. The essentials:
(§1)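 MICs by agar dilution against Bcc and B. gladioli clinical isolates, interpreted with CLSI breakpoints where available; K. pneumoniae ATCC 700603 (SHV-18) and ATCC BAA-1705 (KPC) served as quality controls.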

Another experiment deals with T2, B. multivorans AU19659.
T2 construct: AU19659
Nature of the experiment: microbe, parasite or virus in culture. To be noted: Burkholderia multivorans, AU19659. The procedure, abridged: as §1

A further experiment deals with T3, B. dolosa AU29021.
T3 construct: AU29021
Nature of the experiment: microbe, parasite or virus in culture. The settings on record: Burkholderia dolosa, AU29021. The procedure, abridged: as §1

Another experiment has as its system T4, B. multivorans AU17135.
T4 construct: AU17135
Kind of experiment: microbe, parasite or virus in culture. The settings on record: Burkholderia multivorans, AU17135. The procedure, abridged:
as §1

In another experiment the test system is T5, B. stabilis AU9035.
T5 construct: AU9035
Kind of experiment: microbe, parasite or virus in culture. The settings on record: Burkholderia stabilis, AU9035. The essentials: as §1

The subject of the next experiment is T6, B. multivorans AU21015.
T6 construct: AU21015
Nature of the experiment: microbe, parasite or virus in culture. The settings on record: Burkholderia multivorans, AU21015. The procedure, abridged:
as §1

The subject of another experiment is T7, B. multivorans AU14328.
T7 construct: AU14328
Nature of the experiment: microbe, parasite or virus in culture. The settings on record: Burkholderia multivorans, AU14328. The procedure, abridged: as §1

Another experiment concerns T8, B. multivorans AU28069.
T8 construct: AU28069
Kind of experiment: microbe, parasite or virus in culture. To be noted: Burkholderia multivorans, AU28069. The essentials:
as §1

The test system of the next experiment is T9, B. gladioli AU16341.
T9 construct: AU16341
Nature of the experiment: organism not typed. The procedure, abridged:
as §1

The test system of the next experiment is T10, B. multivorans AU30438.
T10 construct: AU30438
Kind of experiment: microbe, parasite or virus in culture. To be noted: Burkholderia multivorans, AU30438. The essentials:
as §1

In another experiment the test system is T11, B. pyrrocinia AU4348.
T11 construct: AU4348
Nature of the experiment: microbe, parasite or virus in culture. To be noted: Burkholderia pyrrocinia, AU4348. The procedure, abridged:
as §1

The next experiment relates to T12, B. multivorans AU13919.
T12 construct: AU13919
Nature of the experiment: microbe, parasite or virus in culture. The settings on record: Burkholderia multivorans, AU13919. The essentials: as §1

Another experiment deals with T13, B. multivorans AU10086.
T13 construct: AU10086
Kind of experiment: microbe, parasite or virus in culture. To be noted: Burkholderia multivorans, AU10086. The essentials: as §1

Another experiment has as its system T14, B. cepacia AU0108.
T14 construct: AU0108
Kind of experiment: microbe, parasite or virus in culture. To be noted: Burkholderia cepacia, AU0108. The procedure, abridged: as §1

In the next experiment the test system is T15, B. cenocepacia AU3663.
T15 construct: AU3663
Kind of experiment: microbe, parasite or virus in culture. To be noted: Burkholderia cenocepacia, AU3663. The essentials:
as §1

A further experiment relates to T16, B. contaminans AU20979.
T16 construct: AU20979
Kind of experiment: organism not typed. The procedure, abridged: as §1

Another experiment deals with T17, B. multivorans AU29198.
T17 construct: AU29198
Nature of the experiment: microbe, parasite or virus in culture. To be noted: Burkholderia multivorans, AU29198. The procedure, abridged: as §1

Another experiment concerns T18, B. vietnamiensis AU28056.
T18 construct: AU28056
Kind of experiment: microbe, parasite or virus in culture. To be noted: Burkholderia vietnamiensis, AU28056. The procedure, abridged:
as §1

A further experiment deals with T19, B. multivorans AU30050.
T19 construct: AU30050
Nature of the experiment: microbe, parasite or virus in culture. To be noted: Burkholderia multivorans, AU30050. The procedure, abridged:
as §1

The next experiment deals with T20, B. multivorans AU23919.
T20 construct: AU23919
Kind of experiment: microbe, parasite or virus in culture. The settings on record: Burkholderia multivorans, AU23919. The essentials: as §1

The subject of the next experiment is T21, B. multivorans AU11358.
T21 construct: AU11358
Nature of the experiment: microbe, parasite or virus in culture. The settings on record: Burkholderia multivorans, AU11358. The essentials: as §1

A further experiment has as its system T22, B. multivorans AU25543.
T22 construct: AU25543
Kind of experiment: microbe, parasite or virus in culture. The settings on record: Burkholderia multivorans, AU25543. The essentials: as §1

In brackets after ≈: the same amount, converted by molar mass. Some results are limits rather than exact numbers.

Take `CO/N=C(\C(=O)N[C@@H]1C(=O)N2C(C(=O)[O-])=C(C[N+]3(C)CCCC3)CS[C@H]12)c1csc(N)n1` [cefepime]: the MIC is above 32 µg/mL in the experiment with B. cenocepacia AU22509; above 32 µg/mL in the experiment with B. multivorans AU19659; above 32 µg/mL with B. dolosa AU29021; 4 µg/mL (≈ 8.32 µM) in the experiment with B. multivorans AU17135; 32 µg/mL (≈ 66.6 µM) in the experiment on B. stabilis AU9035; above 32 µg/mL against B. multivorans AU21015. The MIC with B. multivorans AU14328 is 8 µg/mL (≈ 16.6 µM); in the experiment with B. multivorans AU28069, 8 µg/mL (≈ 16.6 µM); against B. gladioli AU16341 it was above 32 µg/mL; against B. multivorans AU30438 it was 16 µg/mL (≈ 33.3 µM); against B. pyrrocinia AU4348, 32 µg/mL (≈ 66.6 µM); in the experiment on B. multivorans AU13919 it was 8 µg/mL (≈ 16.6 µM). The MIC in the experiment on B. multivorans AU10086 was 32 µg/mL (≈ 66.6 µM); with B. cepacia AU0108, 8 µg/mL (≈ 16.6 µM); with B. cenocepacia AU3663, 32 µg/mL (≈ 66.6 µM); against B. contaminans AU20979, above 32 µg/mL; with B. multivorans AU29198, above 32 µg/mL; with B. vietnamiensis AU28056 it was 16 µg/mL (≈ 33.3 µM). Besides, the MIC with B. multivorans AU30050 turned out to be 2 µg/mL (≈ 4.16 µM); in the experiment with B. multivorans AU23919, 32 µg/mL (≈ 66.6 µM); in the experiment on B. multivorans AU11358, 8 µg/mL (≈ 16.6 µM); with B. multivorans AU25543, 4 µg/mL (≈ 8.32 µM).
`C[C@H]1COc2c(N3CCN(C)CC3)c(F)cc3c(=O)c(C(=O)O)cn1c23` [levofloxacin]: the MIC against B. cenocepacia AU22509 is 32 µg/mL (≈ 88.6 µM); in the experiment on B. multivorans AU19659, 16 µg/mL (≈ 44.3 µM); with B. dolosa AU29021 it was 4 µg/mL (≈ 11.1 µM); against B. multivorans AU17135, 2 µg/mL (≈ 5.53 µM); against B. stabilis AU9035, 16 µg/mL (≈ 44.3 µM); in the experiment on B. multivorans AU21015, 32 µg/mL (≈ 88.6 µM). Also, the MIC with B. multivorans AU14328 is 2 µg/mL (≈ 5.53 µM); against B. multivorans AU28069, 4 µg/mL (≈ 11.1 µM); in the experiment with B. gladioli AU16341, 4 µg/mL (≈ 11.1 µM); in the experiment on B. multivorans AU30438 it was 4 µg/mL (≈ 11.1 µM); with B. pyrrocinia AU4348, above 32 µg/mL; against B. multivorans AU13919, 2 µg/mL (≈ 5.53 µM). For the same compound, the MIC was above 32 µg/mL against B. multivorans AU10086; 2 µg/mL (≈ 5.53 µM) in the experiment on B. cepacia AU0108; 16 µg/mL (≈ 44.3 µM) in the experiment with B. cenocepacia AU3663; 32 µg/mL (≈ 88.6 µM) against B. contaminans AU20979; 8 µg/mL (≈ 22.1 µM) with B. multivorans AU29198; 8 µg/mL (≈ 22.1 µM) in the experiment on B. vietnamiensis AU28056. In addition, the MIC came to 1 µg/mL (≈ 2.77 µM) with B. multivorans AU30050, 2 µg/mL (≈ 5.53 µM) in the experiment on B. multivorans AU23919, 2 µg/mL (≈ 5.53 µM) against B. multivorans AU11358 and 2 µg/mL (≈ 5.53 µM) with B. multivorans AU25543.
In the case of `C[C@@H](O)[C@H]1C(=O)N2C(C(=O)O)=C(S[C@@H]3CN[C@H](C(=O)N(C)C)C3)[C@H](C)[C@H]12` [meropenem], the MIC against B. cenocepacia AU22509 turned out to be 8 µg/mL (≈ 20.9 µM); against B. multivorans AU19659, 32 µg/mL (≈ 83.4 µM); in the experiment on B. dolosa AU29021 it was 8 µg/mL (≈ 20.9 µM); against B. multivorans AU17135, 4 µg/mL (≈ 10.4 µM); in the experiment on B. stabilis AU9035, 8 µg/mL (≈ 20.9 µM); in the experiment on B. multivorans AU21015, 16 µg/mL (≈ 41.7 µM). In addition, the MIC turned out to be 4 µg/mL (≈ 10.4 µM) with B. multivorans AU14328; 4 µg/mL (≈ 10.4 µM) with B. multivorans AU28069; 8 µg/mL (≈ 20.9 µM) with B. gladioli AU16341; 4 µg/mL (≈ 10.4 µM) against B. multivorans AU30438; 4 µg/mL (≈ 10.4 µM) in the experiment on B. pyrrocinia AU4348; 8 µg/mL (≈ 20.9 µM) with B. multivorans AU13919. For the same compound, the MIC in the experiment with B. multivorans AU10086 was 32 µg/mL (≈ 83.4 µM); against B. cepacia AU0108, 4 µg/mL (≈ 10.4 µM); against B. cenocepacia AU3663, 4 µg/mL (≈ 10.4 µM); with B. contaminans AU20979, 8 µg/mL (≈ 20.9 µM); with B. multivorans AU29198, 16 µg/mL (≈ 41.7 µM); against B. vietnamiensis AU28056, 4 µg/mL (≈ 10.4 µM). Further, the MIC came to 2 µg/mL (≈ 5.22 µM) against B. multivorans AU30050, 4 µg/mL (≈ 10.4 µM) against B. multivorans AU23919, 8 µg/mL (≈ 20.9 µM) in the experiment on B. multivorans AU11358 and 1 µg/mL (≈ 2.61 µM) with B. multivorans AU25543.
